Among the data in article PMC6934184, “Selective DNA-PKcs inhibition extends the therapeutic index of localized radiotherapy and chemotherapy” (The Journal of Clinical Investigation, 2019) are inhibition values, retold here.

The target of the assay is T1, CASK (Homo sapiens, UniProt O14936).
T1 construct: purchased Thermo Fisher Scientific (Life Technologies) SelectScreen
In words: SelectScreen LanthaScreen. In kind it is binding. As to conditions: read-out: % displacement. Put shortly: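 Percent values come from Thermo SelectScreen profiling of NU5455, combining activity and binding assays. CSF1R was run in Z'LYTE format at Km app ATP, and CAMK1 in Adapta format with ATP listed at 10.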
In general terms: TR-FRET usually uses a lanthanide donor and a delayed reading to cut background.

T1 sequence (O14936 whole entry): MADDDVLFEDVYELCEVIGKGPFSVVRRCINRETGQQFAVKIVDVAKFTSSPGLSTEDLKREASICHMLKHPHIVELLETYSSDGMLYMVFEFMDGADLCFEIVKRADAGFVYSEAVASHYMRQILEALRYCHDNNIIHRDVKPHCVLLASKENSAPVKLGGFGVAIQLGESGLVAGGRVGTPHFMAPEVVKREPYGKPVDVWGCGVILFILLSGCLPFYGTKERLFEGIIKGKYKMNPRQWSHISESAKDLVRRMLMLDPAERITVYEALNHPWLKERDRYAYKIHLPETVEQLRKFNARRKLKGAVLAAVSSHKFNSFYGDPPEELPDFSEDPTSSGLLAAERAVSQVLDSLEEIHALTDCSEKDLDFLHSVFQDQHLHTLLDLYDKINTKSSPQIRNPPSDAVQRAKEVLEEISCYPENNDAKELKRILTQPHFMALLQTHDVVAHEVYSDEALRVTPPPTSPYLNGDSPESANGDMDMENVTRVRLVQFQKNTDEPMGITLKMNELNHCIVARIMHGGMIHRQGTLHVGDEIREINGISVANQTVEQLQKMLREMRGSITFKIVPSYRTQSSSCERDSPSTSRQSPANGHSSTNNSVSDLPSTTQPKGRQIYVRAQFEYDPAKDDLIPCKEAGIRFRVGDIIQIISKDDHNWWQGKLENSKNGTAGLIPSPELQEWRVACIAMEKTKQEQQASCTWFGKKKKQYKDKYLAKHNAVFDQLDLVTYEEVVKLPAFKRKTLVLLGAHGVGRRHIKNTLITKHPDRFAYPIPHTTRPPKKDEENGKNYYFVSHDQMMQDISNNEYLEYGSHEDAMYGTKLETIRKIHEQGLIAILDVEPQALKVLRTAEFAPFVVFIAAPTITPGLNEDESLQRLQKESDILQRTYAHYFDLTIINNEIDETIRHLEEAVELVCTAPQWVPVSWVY

Take `CN(C(=O)CN1CCOCC1)c1ccc2sc3c(-c4cccc5c(=O)cc(N6CC7CCC(C6)O7)oc45)cccc3c2c1` [NU5455]: the inhibition at 1 µM is -3.1%.
